Source: PMC7391767, “Molecular mechanisms underlying menthol binding and activation of TRPM8 ion channel” (Nature Communications, 2020)

Tests used:
[1] = molecular target: T1, wild-type TRPM8 (Mus musculus, UniProt Q8R4D5); assay: open probability from noise analysis of macroscopic current and single-channel recordings; type: cell-based
T1 construct: expressed in transfected cells; host or cells: HEK293T
Method: (§1) Patch-clamp recordings were performed with a HEKA EPC10 amplifier controlled by PatchMaster software (HEKA). Whole-cell recordings were performed at ±80 mV. Patch pipettes were prepared from borosilicate glass and fire-polished to resistance of ~4 MΩ. For whole-cell recording, serial resistance was compensated by 60%. For single-channel recordings, patch pipettes were fire-polished to a higher resistance of 6-to-10 MΩ and then recorded in the inside-out configuration. To maximize the chance of obtaining a patch with only one channel, single-channel recordings were performed about 8 h after transfection. A solution with 130 mM NaCl, 10 mM glucose, 0.2 mM EDTA, and 3 mM HEPES (pH 7.2) was used in both bath and pipette for either whole-cell or single-channel recordings. Membrane potential was clamped at +80 mV for single-channel recordings. Current was sampled at 10 kHz and filtered at 2.9 kHz. All recordings were performed at room temperature (22 °C) with the maximum variation of 1 °C.
From single-channel recordings, the open probability (Po) was calculated after events detection with a hidden Markov approach in the software QuB[49] (http://www.qub.buffalo.edu/). A dead time of 0.32 ms was imposed. As a complementary approach, Po was also estimated from noise analysis[52] of whole-cell recordings. Briefly, the mean current amplitude (I), the squared deviations in current amplitude from the mean value (σ^2), and the single-channel current (i) were measured experimentally from a membrane patch of ion channels. Then the number of ion channels clamped in that patch (N) was determined as3 N=I^2/i⋅I−σ^2.
The maximum current when each of ion channel is at the open state with a Po of 1 is equal to i × N. Then the open probability was calculated as the ratio between the measured macroscopic current and the maximum current calculated by noise analysis. To estimate channel conductance, current amplitude was estimated from all-point histogram of single-channel recordings.

[2] = molecular target: T2, TRPM8 point mutants at sites 840, 910, 916, 972 (Mus musculus, UniProt Q8R4D5); assay: Φ analysis based on single-channel recordings; type: cell-based
T2 construct: expressed in transfected cells; host or cells: HEK293T
T2 sequence (Q8R4D5 whole entry, change not shown): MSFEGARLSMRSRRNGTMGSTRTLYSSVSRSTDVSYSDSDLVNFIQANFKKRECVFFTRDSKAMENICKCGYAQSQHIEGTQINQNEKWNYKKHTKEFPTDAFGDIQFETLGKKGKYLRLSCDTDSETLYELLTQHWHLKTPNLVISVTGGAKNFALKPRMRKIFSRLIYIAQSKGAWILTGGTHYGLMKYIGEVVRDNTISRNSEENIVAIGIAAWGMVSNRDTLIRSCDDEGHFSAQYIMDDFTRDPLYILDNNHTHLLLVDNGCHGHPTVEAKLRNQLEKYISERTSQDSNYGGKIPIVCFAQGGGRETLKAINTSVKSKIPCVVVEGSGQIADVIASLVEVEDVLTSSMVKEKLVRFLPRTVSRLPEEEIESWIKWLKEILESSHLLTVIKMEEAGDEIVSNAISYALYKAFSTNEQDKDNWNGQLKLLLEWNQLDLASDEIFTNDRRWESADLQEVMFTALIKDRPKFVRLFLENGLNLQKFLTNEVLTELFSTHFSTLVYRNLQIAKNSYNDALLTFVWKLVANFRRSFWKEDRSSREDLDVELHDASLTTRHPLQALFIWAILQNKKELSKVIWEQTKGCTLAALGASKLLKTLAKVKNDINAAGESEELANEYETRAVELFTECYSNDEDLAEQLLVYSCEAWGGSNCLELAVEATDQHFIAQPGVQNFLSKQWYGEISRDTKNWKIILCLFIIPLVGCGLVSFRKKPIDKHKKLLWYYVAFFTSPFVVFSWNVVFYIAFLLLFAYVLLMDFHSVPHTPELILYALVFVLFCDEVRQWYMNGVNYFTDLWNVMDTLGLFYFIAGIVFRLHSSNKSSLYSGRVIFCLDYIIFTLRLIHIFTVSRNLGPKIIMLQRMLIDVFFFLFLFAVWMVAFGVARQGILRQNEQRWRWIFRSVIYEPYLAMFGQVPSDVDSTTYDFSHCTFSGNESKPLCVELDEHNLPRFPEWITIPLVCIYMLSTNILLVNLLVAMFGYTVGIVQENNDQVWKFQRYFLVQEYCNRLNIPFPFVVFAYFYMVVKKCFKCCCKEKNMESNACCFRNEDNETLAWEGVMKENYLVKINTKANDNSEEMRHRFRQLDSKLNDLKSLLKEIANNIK
Method: as §1
(§2) We followed the principle of Φ-analysis described in published literatures in detail[17],[36],[48]. […] At such a high concentration, only the patches showing the activities of one channel was used for analysis. Single-channel data were processed by the QuB software[49] version 1.4 (ref. [50]). Opening and closing events were detected during idealization with the half amplitude method. Using the simple close ↔ open model (Fig. 6a), the forward and backward rates were determined with a deadtime of 0.3-to-0.4 ms. The equilibrium constant was calculated as the ratio of forward and backward rates. Opening rates and equilibrium constants for each mutant at the same residue site were plotted in log scale (Brønsted plot) before fitting with a linear function to determine the Φ value.

[3] = molecular target: T3, TRPM8 point mutants at sites 840, 910, 916, 972 (Mus musculus, UniProt Q8R4D5, A910V); assay: Φ analysis based on single-channel recordings; type: cell-based; conditions: TRPM8 910V, mean of single-channel recordings (1mM, 500um)
T3 construct: expressed in transfected cells; host or cells: HEK293T
T3 sequence (Q8R4D5 whole entry A910V): as the sequence (Q8R4D5 whole entry, change not shown) above, with A910V counted along it
Method: as §1, §2

[4] = molecular target: T4, TRPM8 point mutants at sites 840, 910, 916, 972 (Mus musculus, UniProt Q8R4D5, A910G); assay: Φ analysis based on single-channel recordings; type: cell-based; conditions: TRPM8 910G, mean of single-channel recordings (200u, 500u, 1mM)
T4 construct: expressed in transfected cells; host or cells: HEK293T
T4 sequence (Q8R4D5 whole entry A910G): as the sequence (Q8R4D5 whole entry, change not shown) above, with A910G counted along it
Method: as §1, §2

[5] = molecular target: T5, TRPM8 point mutants at sites 840, 910, 916, 972 (Mus musculus, UniProt Q8R4D5, T840D); assay: Φ analysis based on single-channel recordings; type: cell-based; conditions: TRPM8 840D, mean of single-channel recordings (500um, 1mM)
T5 construct: expressed in transfected cells; host or cells: HEK293T
T5 sequence (Q8R4D5 whole entry T840D): as the sequence (Q8R4D5 whole entry, change not shown) above, with T840D counted along it
Method: as §1, §2

[6] = molecular target: T6, TRPM8 point mutants at sites 840, 910, 916, 972 (Mus musculus, UniProt Q8R4D5, P916F); assay: Φ analysis based on single-channel recordings; type: cell-based; conditions: TRPM8 916F, mean of single-channel recordings
T6 construct: expressed in transfected cells; host or cells: HEK293T
T6 sequence (Q8R4D5 whole entry P916F): as the sequence (Q8R4D5 whole entry, change not shown) above, with P916F counted along it
Method: as §1, §2

[7] = molecular target: T7, TRPM8 point mutants at sites 840, 910, 916, 972 (Mus musculus, UniProt Q8R4D5, A910I); assay: Φ analysis based on single-channel recordings; type: cell-based; conditions: TRPM8 910I, mean of single-channel recordings (1mM)
T7 construct: expressed in transfected cells; host or cells: HEK293T
T7 sequence (Q8R4D5 whole entry A910I): as the sequence (Q8R4D5 whole entry, change not shown) above, with A910I counted along it
Method: as §1, §2

[8] = molecular target: T8, TRPM8 point mutants at sites 840, 910, 916, 972 (Mus musculus, UniProt Q8R4D5, V972I); assay: Φ analysis based on single-channel recordings; type: cell-based; conditions: TRPM8 972I, mean of single-channel recordings
T8 construct: expressed in transfected cells; host or cells: HEK293T
T8 sequence (Q8R4D5 whole entry V972I): as the sequence (Q8R4D5 whole entry, change not shown) above, with V972I counted along it
Method: as §1, §2

[9] = molecular target: T9, TRPM8 point mutants at sites 840, 910, 916, 972 (Mus musculus, UniProt Q8R4D5, T840N); assay: Φ analysis based on single-channel recordings; type: cell-based; conditions: TRPM8 840N, mean of single-channel recordings (1mM, 5mM)
T9 construct: expressed in transfected cells; host or cells: HEK293T
T9 sequence (Q8R4D5 whole entry T840N): as the sequence (Q8R4D5 whole entry, change not shown) above, with T840N counted along it
Method: as §1, §2

[10] = tested on: TRPM8 point mutants at sites 840, 910, 916, 972; assay: Φ analysis based on single-channel recordings; type: cell-based, mouse; conditions: for Φ value: 5 mM menthol, single-channel, +80 mV
Method: as §1, §2

[11] = TRPM8 840T (recordings 1S-AF/2S-AF, 500um, 1mM)
[12] = TRPM8 910A (recordings 1S-AF/2S-AF, 500um, 1mM)
[13] = TRPM8 916P (recordings 1S-AF/2S-AF, 500um, 1mM)
[14] = TRPM8 972V (recordings 1S-AF/2S-AF, 500um, 1mM)
[15] = TRPM8 840A, mean of single-channel recordings (500um)
[16] = TRPM8 910T, mean of single-channel recordings (1mM, 5mM)
[17] = TRPM8 972L, mean of single-channel recordings

T1 sequence (Q8R4D5 whole entry): as the sequence (Q8R4D5 whole entry, change not shown) above

**Q.** Which agonist nature ([1]; noise analysis of macroscopic current, confirmed in single-channel recordings) does the source give for CC(C)[C@@H]1CC[C@@H](C)C[C@H]1O [menthol, (−)-menthol] here?
**A.** partial agonist

**Q.** And the “maximum open probability (Po max)” value ([1]; wild-type TRPM8, near saturating concentration (menthol 500 µM))?
**A.** 0.81 ± 0.03

**Q.** What about the logKeqave [2, 11] of the same compound?
**A.** -0.1349

**Q.** And the “ratesave (mean log forward rates)” value [2, 11]?
**A.** 2.916

**Q.** And the logKeqave [2, 12]?
**A.** -0.1349

**Q.** And the “ratesave (mean log forward rates)” value [2, 12]?
**A.** 2.916

**Q.** And the logKeqave [2, 13]?
**A.** -0.1349

**Q.** And the logratesave [2, 13]?
**A.** 2.916

**Q.** What about the logKeqave [2, 14] of the same compound?
**A.** -0.1349

**Q.** And the logratesave [2, 14]?
**A.** 2.916

**Q.** And the logKeqave [3]?
**A.** 0.7613

**Q.** And the “ratesave (mean log forward rates)” value [3]?
**A.** 3.348

**Q.** And the logKeqave [4]?
**A.** -0.02911

**Q.** And the “ratesave (mean log forward rates)” value [4]?
**A.** 2.893

**Q.** And the logKeqave [5]?
**A.** 0.4314

**Q.** And the “ratesave (mean log forward rates)” value [5]?
**A.** 3.1375

**Q.** What about the logKeqave [6] of the same compound?
**A.** 0.4532

**Q.** What about the logratesave [6] of the same compound?
**A.** 3.166

**Q.** What about the logKeqave [7] of the same compound?
**A.** -1.154

**Q.** What about the “ratesave (mean log forward rates)” value [7] of the same compound?
**A.** 2.135

**Q.** What about the logKeqave [8] of the same compound?
**A.** -0.5254

**Q.** And the logKeqave [9]?
**A.** 0.1255

**Q.** What about the “ratesave (mean log forward rates)” value [9] of the same compound?
**A.** 3.014

**Q.** What about the logKeqave [10, 15] of the same compound?
**A.** -0.9923

**Q.** And the “ratesave (mean log forward rates)” value [10, 15]?
**A.** 2.126

**Q.** What about the logKeqave [10, 16] of the same compound?
**A.** 0.1885

**Q.** What about the “ratesave (mean log forward rates)” value [10, 16] of the same compound?
**A.** 3.0067

**Q.** And the logKeqave [10, 17]?
**A.** 0.4054

**Q.** What about the logratesave [10, 17] of the same compound?
**A.** 3.126

**Q.** And the “phi from single-channel recording” value ([10]; site 840)?
**A.** 0.7339

**Q.** And the Φ value ([10]; site 840)?
**A.** 0.73

**Q.** And the “phi from single-channel recording” value ([10]; site 910)?
**A.** 0.6331

**Q.** And the Φ value ([10]; site 910)?
**A.** 0.63

**Q.** What about the “phi from single-channel recording” value ([10]; site 916) of the same compound?
**A.** 0.4253

**Q.** And the Φ value ([10]; site 916)?
**A.** 0.42

**Q.** And the “phi from single-channel recording” value ([10]; site 972)?
**A.** 0.711

**Q.** And the Φ value ([10]; site 972)?
**A.** 0.71
